“And” between values parts separate entries of the source, which are not always exact repeats. Equal entries are not always repeated. Toxic doses and inconclusive results are not listed. Rule as the data show it: active = T/C of 150% or more; inactive = T/C below 125%. Peptide text beside a SMILES is read from it. * marks the point of attachment. Cbz = O=C(OCc1ccccc1)*; NHNH2 = NN*
System: L1210 leukemia ip in BDF1 mice, survival T/C
Experiment: NCI In Vivo Anticancer Drug Screen. Data for tumor model L1210 Leukemia (intraperitoneal) in B6D2F1 (BDF1) mice
Settings: endpoint: mean survival time, higher = longer survival
Procedure, shortened: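 Antitumor effect is assessed in tumor-bearing animals. Survival in the compound arm is compared with a vehicle-dosed control arm and expressed as their quotient.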

[1] = dose: 100.0 mg/kg/injection, schedule: Q04DX002 (ip), vehicle: Klucel (hydroxypropylcellulose) (HPC)
[2] = dose: 200.0 mg/kg/injection, schedule: Q04DX002 (ip), vehicle: Klucel (hydroxypropylcellulose) (HPC)
[3] = dose: 400.0 mg/kg/injection, schedule: Q04DX002 (ip), vehicle: Klucel (hydroxypropylcellulose) (HPC)
[4] = dose: 100.0 mg/kg/injection, schedule: Q01DX001 (ip), vehicle: saline
[5] = dose: 200.0 mg/kg/injection, schedule: Q01DX001 (ip), vehicle: saline
[6] = dose: 100.0 mg/kg/injection, schedule: Q04DX003 (ip), vehicle: Klucel (hydroxypropylcellulose) (HPC)
[7] = dose: 100.0 mg/kg/injection, schedule: Q04DX003 (ip), vehicle: saline
[8] = dose: 200.0 mg/kg/injection, schedule: Q04DX003 (ip), vehicle: Klucel (hydroxypropylcellulose) (HPC)
[9] = dose: 200.0 mg/kg/injection, schedule: Q04DX003 (ip), vehicle: saline
[10] = dose: 400.0 mg/kg/injection, schedule: Q04DX003 (ip), vehicle: saline
[11] = dose: 100.0 mg/kg/injection, schedule: Q01DX009 (ip), vehicle: Klucel (hydroxypropylcellulose) (HPC)
[12] = dose: 200.0 mg/kg/injection, schedule: Q01DX009 (ip), vehicle: Klucel (hydroxypropylcellulose) (HPC)
[13] = dose: 400.0 mg/kg/injection, schedule: Q01DX009 (ip), vehicle: Klucel (hydroxypropylcellulose) (HPC)
[14] = dose: 400.0 mg/kg/injection, schedule: Q04DX003 (ip), vehicle: Klucel (hydroxypropylcellulose) (HPC)
[15] = dose: 100.0 mg/kg/injection, schedule: Q04DX003 (ip), vehicle: saline with Tween-80
[16] = dose: 200.0 mg/kg/injection, schedule: Q04DX003 (ip), vehicle: saline with Tween-80
[17] = dose: 400.0 mg/kg/injection, schedule: Q04DX003 (ip), vehicle: saline with Tween-80
[18] = dose: 400.0 mg/kg/injection, schedule: Q01DX001 (ip), vehicle: saline

Measured: T/C

CCOC(=O)N/N=C/c1ccc(O)cc1
inactive: [1] 91 % of control | [2] 102 % of control | [3] 91 % of control

CC(O)C(NC(=O)OCc1ccccc1)C(=O)NC(CO)C(=O)NN (stereo not drawn) (Cbz-Thr-Ser-NHNH2; configuration not given here)
inactive: dose: 5.0 mg/kg/injection, schedule: Q01DX001 (ip), vehicle: saline 103 % of control | dose: 10.0 mg/kg/injection, schedule: Q01DX001 (ip), vehicle: saline 103 % of control | dose: 20.0 mg/kg/injection, schedule: Q01DX001 (ip), vehicle: saline 103 % of control | dose: 40.0 mg/kg/injection, schedule: Q01DX001 (ip), vehicle: saline 105 % of control | dose: 80.0 mg/kg/injection, schedule: Q01DX001 (ip), vehicle: saline 97 % of control | [4] 103 % of control and 98 % of control | [5] 95 % of control

O=S(=O)(O)c1ccc(O)cc1
inactive: dose: 50.0 mg/kg/injection, schedule: Q04DX003 (ip), vehicle: Klucel (hydroxypropylcellulose) (HPC) 98 % of control | dose: 100.0 mg/kg/injection, schedule: Q01DX009 (ip), vehicle: saline 110 % of control | [6] 104 % of control | [7] 114 % of control | dose: 200.0 mg/kg/injection, schedule: Q01DX009 (ip), vehicle: saline 107 % of control | [8] 124 % of control | [9] 97 % of control | dose: 400.0 mg/kg/injection, schedule: Q01DX009 (ip), vehicle: saline 101 % of control | [10] 101 % of control

CC1CN=C(c2ccc(NC(=O)Nc3ccc(NC(=O)c4ccc(C5=NCC(C)N5)cc4)cc3)cc2)N1 (centres undefined)
inactive: dose: 62.5 mg/kg/injection, schedule: Q01DX Z (oral), vehicle: water 97 % of control | dose: 125.0 mg/kg/injection, schedule: Q01DX Z (oral), vehicle: water 101 % of control | dose: 250.0 mg/kg/injection, schedule: Q01DX Z (oral), vehicle: water 100 % of control | dose: 500.0 mg/kg/injection, schedule: Q01DX Z (oral), vehicle: water 105 % of control

CCCCCCCCC(O)CC (centres undefined)
inactive: [11] 93 % of control and 96 % of control | [6] 103 % of control | [12] 96 % of control | [8] 97 % of control | [13] 92 % of control and 105 % of control | [14] 97 % of control

CN(C)P(=O)(Nc1ccc(Cl)cc1)Nc1ccc(Cl)cc1
inactive: [6] 94 % of control | [8] 96 % of control | [14] 100 % of control

CCOC(=O)c1c(N)sc2c1CCCC2
inactive: dose: 100.0 mg/kg/injection, schedule: Q01DX009 (ip), vehicle: saline sonified 102 % of control | [15] 95 % of control | dose: 200.0 mg/kg/injection, schedule: Q01DX009 (ip), vehicle: saline sonified 89 % of control | [16] 103 % of control | dose: 400.0 mg/kg/injection, schedule: Q01DX009 (ip), vehicle: saline sonified 105 % of control | [17] 97 % of control

O=C(NC1CCC(CC2CCCCC2)CC1)c1ccccc1 (centres undefined)
inactive: [15] 92 % of control | [16] 97 % of control | [17] 113 % of control

O=C(COc1ccc(Cl)cc1Cl)Nc1ccc(-c2ccc(NC(=O)COc3ccc(Cl)cc3Cl)cc2)cc1
inactive: dose: 50.0 mg/kg/injection, schedule: Q04DX002 (ip), vehicle: Klucel (hydroxypropylcellulose) (HPC) 89 % of control | [1] 89 % of control | [2] 100 % of control

C[C@]12CC[C@@H](O)C[C@H]1CC[C@@H]1[C@@H]2CC[C@]2(C)C(=O)CC[C@@H]12
inactive: dose: 100.0 mg/kg/injection, schedule: Q01DX001 (sc), vehicle: steriod suspending solution 101 % of control | dose: 100.0 mg/kg/injection, schedule: Q04DX002 (ip), vehicle: saline with Tween-80 100 % of control | dose: 200.0 mg/kg/injection, schedule: Q01DX001 (sc), vehicle: steriod suspending solution 95 % of control | dose: 200.0 mg/kg/injection, schedule: Q04DX002 (ip), vehicle: saline with Tween-80 96 % of control | dose: 400.0 mg/kg/injection, schedule: Q01DX001 (sc), vehicle: steriod suspending solution 95 % of control | dose: 400.0 mg/kg/injection, schedule: Q04DX002 (ip), vehicle: saline with Tween-80 100 % of control

Clc1ccccc1/C=N/Nc1c2ccccc2nc2ccccc12
inactive: [18] 87 % of control

COC(=O)CCN1CCN(c2ccccc2)CC1
inactive: [4] 98 % of control | [5] 98 % of control | [18] 97 % of control

CC(C)=CCN(CC=C(C)C)CCC(C#N)(CCN(CC=C(C)C)CC=C(C)C)c1cccc2ccccc12
inactive: [11] 86 % of control

COc1ccccc1/C=c1\[nH]c(=O)/c(=C/c2ccccc2OC)[nH]c1=O
inactive: [11] 88 % of control | [6] 101 % of control | [12] 86 % of control | [8] 101 % of control | [13] 86 % of control | [14] 98 % of control

O=C1c2cc([N+](=O)[O-])ccc2-c2ccc([N+](=O)[O-])cc21
inactive: dose: 50.0 mg/kg/injection, schedule: Q01DX009 (ip), vehicle: Klucel (hydroxypropylcellulose) (HPC) 95 % of control and 90 % of control | dose: 100.0 mg/kg/injection, schedule: Q01DX001 (ip), vehicle: carboxymethylcellulose (CMC) 89 % of control | [11] 109 % of control | [1] 101 % of control | dose: 200.0 mg/kg/injection, schedule: Q01DX001 (ip), vehicle: carboxymethylcellulose (CMC) 87 % of control | [12] 98 % of control and 102 % of control | [2] 113 % of control | dose: 400.0 mg/kg/injection, schedule: Q01DX001 (ip), vehicle: carboxymethylcellulose (CMC) 97 % of control | [3] 89 % of control

ClCCn1nc2c(c1-c1ccc(Cl)cc1)CCc1ccccc1-2
inactive: dose: 100.0 mg/kg/injection, schedule: Q04DX003 (ip), vehicle: gum acacia 92 % of control | dose: 200.0 mg/kg/injection, schedule: Q04DX003 (ip), vehicle: gum acacia 98 % of control | dose: 400.0 mg/kg/injection, schedule: Q04DX003 (ip), vehicle: gum acacia 95 % of control

CN1OCC2CCCC(c3ccccc3)C21 (centres undefined)
inactive: [6] 97 % of control | [8] 100 % of control

N#CC1CNCCC1=N (centres undefined)
inactive: [7] 96 % of control | [9] 96 % of control | [10] 100 % of control

COC(=O)C(CCC(=O)OC(C)(C)C)NC(=O)C(F)(F)F (centres undefined)
inactive: dose: 50.0 mg/kg/injection, schedule: Q01DX001 (ip), vehicle: Klucel (hydroxypropylcellulose) (HPC) 94 % of control | dose: 100.0 mg/kg/injection, schedule: Q01DX001 (ip), vehicle: Klucel (hydroxypropylcellulose) (HPC) 100 % of control | dose: 200.0 mg/kg/injection, schedule: Q01DX001 (ip), vehicle: Klucel (hydroxypropylcellulose) (HPC) 97 % of control

ClCCC[Si](Cl)(Cl)Cl
inactive: dose: 75.0 mg/kg/injection, schedule: Q01DX001 (ip), vehicle: saline 109 % of control | dose: 150.0 mg/kg/injection, schedule: Q01DX001 (ip), vehicle: saline 107 % of control | dose: 300.0 mg/kg/injection, schedule: Q01DX001 (ip), vehicle: saline 100 % of control

CC/C(C)=C\CC/C(C)=C/COc1cccc(C(C)=O)c1
inactive: dose: 75.0 mg/kg/injection, schedule: Q01DX009 (ip), vehicle: carboxymethylcellulose (CMC) 94 % of control | dose: 150.0 mg/kg/injection, schedule: Q01DX009 (ip), vehicle: carboxymethylcellulose (CMC) 90 % of control | dose: 300.0 mg/kg/injection, schedule: Q01DX009 (ip), vehicle: carboxymethylcellulose (CMC) 92 % of control

c1ccc2c(c1)N=C1CCCC3CCCC123 (centres undefined)
inactive: dose: 100.0 mg/kg/injection, schedule: Q## X003 (ip), vehicle: saline 98 % of control | dose: 200.0 mg/kg/injection, schedule: Q## X003 (ip), vehicle: saline 104 % of control | dose: 400.0 mg/kg/injection, schedule: Q## X003 (ip), vehicle: saline 96 % of control

NC(=O)CNC(=O)OCc1ccccc1
inactive: [11] 102 % of control | [6] 94 % of control | [12] 94 % of control | [8] 105 % of control | [13] 107 % of control | [14] 94 % of control

CCOC(=O)COc1ccc2c(C)c(CCN(CC)CC)c(=O)oc2c1
inactive: [4] 103 % of control | [5] 92 % of control | [18] 96 % of control

Source: PubChem BioAssay AID248 (DTP/NCI, 2004)
